In one test the test system is KB cells. As to the kind of experiment: Autophagy (LC3 conversion, Western blot), KB. The format is cell-based, Human. Conditions: 48 h or 72 h, full serum. As to the method:
KB cells were treated with either DMSO (negative control) or BPR1K653 (48 h or 72 h) under full serum conditions. Cells cultured drug-free under reduced serum conditions were used as a positive control. Expression of various proteins was determined by Western blotting. The level of conversion of LC3-I to LC3-II provides an indicator of autophagic activity. (TIF) Click here for additional data file.

The next test deals with HONE-1 cells. Briefly: Western blot of Histone H3 phosphorylation and cyclin B1, HONE-1. The format is cell-based, Human. Conditions: HONE-1, 48 h. The procedure:
Cells were lysed with ice-cold lysis buffer (10 mM Tris, 1 mM EDTA, 1 mM DTT, 60 mM KCl, 0.5% NP-40 and protease inhibitors). […] The resolved proteins were electrophoretically transferred to PVDF membranes (Amersham Life Science, Amersham, U.K.) for Western blot analysis. The membranes were blocked with 5% non-fat milk at room temperature for two hours, washed twice with TBST (1% Tween) and then incubated with either anti-phosphorylated Aurora-A/-B/-C kinase antibody (#2914S, Cell Signaling Technology, Danvers, MA), anti-Aurora-A and -B kinase antibody (#ab1287 and #ab2254, Abcam, Cambridge, MA), anti-phosphorylated Histone H3 antibody (#9701, Cell Signaling Technology, Danvers, MA), anti-Histone H3 antibody (#9715, Cell Signaling Technology, Danvers, MA), anti-Cyclin B1 antibody or anti-Actin antibody (#sc-245 and #sc-130065, Santa Cruz Biotechnology, Santa Cruz, CA) overnight at 4°C. Membranes were washed twice with TBST then subsequently incubated with a horseradish peroxidase-conjugated secondary antibody (Santa Cruz Biotechnology, Santa Cruz, CA) for 1 hour at room temperature. Immunoreactivity was detected by Enhanced Chemiluminescence (Amersham International, Buckingham, U.K.) and autoradiography. Experiments were repeated independently at least two times.
A general note: Immunoblotting shows a protein as a band on a membrane.

For another test, the system named is A549 cells. Briefly: Clonogenic assay, A549. The format is cell-based, Human. Conditions: Homo sapiens; A549, lung, p53 wild-type, MDR1 negative; read-out: IC50, anti-proliferative activity. The procedure: Human lung adenocarcinoma A549 cells and NTUB1 bladder cancer cells were maintained in RPMI supplied with 10% fetal bovine serum. […] KB-derived MRP1-expressing cell line, KB-7D, was maintained in growth medium supplemented with 7 µM VP-16.
Two hundred cells in logarithmic growth phase were seeded in a 6-well plate. The cells were exposed to various concentrations of the test drugs for a three-generation period. At the end of the incubation period, cells were fixed and stained with 50% ethanol containing 0.5% methylene blue for 30 min. The plates were washed five times with water and allowed to air-dry. Colonies were countered manually. […] Each value represents the average of at least three independent experiments run in triplicates.

The subject of test [1] is various human cancer cell lines. As to the kind of experiment: Clonogenic assay, panel of cancer cell lines. Particulars: for IC50: Homo sapiens. The format is cell-based. The procedure:
Human lung adenocarcinoma A549 cells and NTUB1 bladder cancer cells were maintained in RPMI supplied with 10% fetal bovine serum. KB-derived MDR1-expressing cell lines (i.e. KB-VIN10 and KB-S15) and NTUB1-dervided MDR1-expressing cell line (i.e. NTU0.017) were maintained in growth medium supplemented with 10 nM vincristine, 15 nM and 17 nM paclitaxel respectively. […] KB-derived MRP1-expressing cell line, KB-7D, was maintained in growth medium supplemented with 7 µM VP-16.
Two hundred cells in logarithmic growth phase were seeded in a 6-well plate. The cells were exposed to various concentrations of the test drugs for a three-generation period. At the end of the incubation period, cells were fixed and stained with 50% ethanol containing 0.5% methylene blue for 30 min. The plates were washed five times with water and allowed to air-dry. Colonies were countered manually. The IC50 value resulting from 50% inhibition of cell growth was calculated graphically as a comparison with the growth of the control group. Each value represents the average of at least three independent experiments run in triplicates.

Like-named read-outs stand apart in the source and are kept apart here.

Take `CN(C)Cc1ccccc1NC(=O)Nc1ccc(CCNc2ncnc3oc(-c4ccccc4)c(Cl)c23)cc1` [BPR1K653]: the induction of autophagy entry in the test on KB cells is listed as “not autophagy”. The “phosphorylation of Histone H3 and expression of cyclin B1” value in the test with HONE-1 cells is given as “decreased”. Besides, the IC50 in the test on A549 cells was 0.009 µM; in test [1] (A549, HONE-1, OECM-1, KB, HT29, NTUB1, MV4-11, IM9, read-out: IC50 against various types of cancer cells), less than 0.5 µM; in test [1] (read-out: IC50 in all tested p53-wildtype/-negative/-mutant cancer cell lines) it was less than 0.02 µM. Moreover, the “effect of verapamil treatment on sensitivity” value in test [1] (MDR-negative and MDR1-expressing cancer cells, verapamil 10 µM, data not shown) is listed as “could not further increase the sensitivity to BPR1K653”.
